Columns and labels:
[1] = pterin suspensions tested by the NIH; cited from earlier work
[2] = test system: C3H/HeN-MTV+ mammary gland adenocarcinoma; conditions: oral gavage 3/16 mL of 5 mM pterin in 1.25 mM CaCl2 daily (about 7 mg/kg/day) for 8 days; Figure One
Procedure: LaRusso, P., et al. Cancer Research 50: 4900-4905 (1990). T/C is the ratio between the median tumor volume (MTV) of the Test group of tumor producing mice and the MTV of the Control group of mice. […] The median tumor volume of each group is determined, including zeros (remissions), for each day of measurement. The T/C value in percentage is an indication of antitumor effectiveness (Figure Two). A T/C equal to or less than 42% is considered significant antitumor activity. A T/C value <10% is indicative of a high degree of antitumor activity and is the level used by the National Cancer Institute to justify systematic toxicology studies preliminary to Investigational New Drug (IND) filing (termed DN-2 level activity).
The A-line at 42% represents the level of activity established by the N.C.I. for “significant antitumor activity”. The B-line at about 10% depicts the level representing a “high degree of antitumor activity”.

[3] = Treatment toxicity (body weight reduction) in athymic nude mice; type: in vivo; conditions: oral gavage once daily for 14 days; assessed from reductions in body weight
Procedure: MDA MB 231 breast cancer cells (5,000,000 cells in 100 uL of phosphate buffered saline) were injected subcutaneously into the right leg of female immunodeficient athymic nude mice. When the tumors reached a mean diameter of 3-5 mm, the mice were divided into two groups (8 mice per treatment group), and the treatment begun. The mice were treated by oral gavage once daily for 14 days with either 3/16 mL of the vehicle control (water) or with 3/16 mL of 5 mM CaCl2 .Pterin from Example 2.
(§1) Tumor dimensions and body weights were measured 4 times weekly for approximately three weeks from the start of treatment. Tumors were measured in three planes using Vernier calipers, and tumor volume (V) was calculated as follows: V=pi(x x y x z)/6, where x, y, and z are the tumor measurements minus skin thickness. The mean tumor volume was calculated at each time point. For each group, the mean of the ratio V/Vo was plotted as a function of time after treatment, and tumor growth delay calculated. Treatment toxicity was assessed from reductions in body weight after treatment. The mice were sacrificed if their tumor volumes reached greater than or equal to 1600 mm^3 or weight loss exceeded 25%.

[4] = test system: MDA MB 231 breast cancer cells; test: Human breast tumor xenograft in athymic nude mice, oral gavage; type: in vivo; conditions: oral gavage once daily for 14 days, 3/16 mL, Figure Three
Text: This study evaluated the activity of the test agent, CaPterin, on human mammary tumor xenografts in mice. Athymic nude (nu/nu) female mice, age 3-4 weeks, were purchased from Harlan Spreague Dawley, Inc. (Indianapolis, Ind.). The animals were housed four per cage in sterile filter-topped cages in ventilated cage racks and Microisolator™ cages (LabProducts, DE). Upon arrival, the mice were quarantined for at least four working days before use. The animal facility is AAALAC-accredited. Temperature is maintained at 72+/−5° F. and relative humidity at 35-70%; a 12-hour light/dark cycle was used. The mice were fed sterile, autoclavable, certified Purina rodent chow ad libitum. […] The water supply is analyzed quarterly for metals and trace contaminants. […]
as §1, with “The mice were sacrificed if their tumor volumes reached greater than or equal to 1600 mm^3 or weight loss exceeded 25%.” left out

Nc1nc2nccnc2c(=O)[nH]1 [Pterin]
antineoplastic activity [1]: no significant antineoplastic activity

CaCl2(pterin)4
median tumor volume (MTV) relative to controls [2]: strongly regresses tumor growth relative to controls

CaCl2(pterin)4 [CaPterin]
toxicity throughout the course of treatment [3]: no evidence of toxicity
mean growth response as relative tumor volume (V/Vo) relative to controls [4]: strongly regresses tumor growth relative to controls

Reference: patent publication US6358953B1, “Pterin antineoplastic agents” (priority 1998, dated 2002)
